Tested on: serum uric acid (sUA)
Experiment: Phase 1 single dose study, pharmacodynamics (serum uric acid) in healthy adult males
Type: in vivo, human
Procedure: The dose groups included Cohort 1 (15 mg or placebo, fasted, oral suspension), Cohort 2 (50 mg or placebo, fasted, suspension), Cohort 3 (100 mg or placebo, fasted, oral suspension), Cohort 4 (150 mg or placebo, fasted, oral suspension), Cohort 6 (50 mg or placebo, fed, oral suspension), and Cohort 7 (50 mg or placebo, fasted, oral capsule). […] An additional 8 subjects received placebo.
Decrease in sUA appeared to reach a plateau at 100 mg or lower.

[1] = 15 mg single oral, fasted, 12 h
[2] = 15 mg single oral, fasted, 30 h
[3] = 15 mg single oral, fasted, 36 h
[4] = 15 mg single oral, fasted, 48 h
[5] = 15 mg single oral, fasted, 54 h
[6] = 15 mg single oral, fasted, 60 h
[7] = 15 mg single oral, fasted, 72 h
[8] = 15 mg single oral, fasted, 96 h
[9] = 15 mg single oral, fasted, 120 h
[10] = 50 mg single oral, fasted, Capsule, 6 h
[11] = 50 mg single oral, fasted, Capsule, 12 h
[12] = 50 mg single oral, fasted, Capsule, 24 h
[13] = 50 mg single oral, fasted, Capsule, 30 h
[14] = 50 mg single oral, fasted, Capsule, 36 h
[15] = 50 mg single oral, fasted, Capsule, 48 h
[16] = 50 mg single oral, fasted, Capsule, 54 h
[17] = 50 mg single oral, fasted, Capsule, 60 h
[18] = 50 mg single oral, fasted, Capsule, 72 h
[19] = 50 mg single oral, fasted, Capsule, 96 h
[20] = 50 mg single oral, fasted, Capsule, 120 h
[21] = 50 mg single oral, fasted, 12 h
[22] = 50 mg single oral, fasted, 24 h
[23] = 50 mg single oral, fasted, 30 h
[24] = 50 mg single oral, fasted, 36 h
[25] = 50 mg single oral, fasted, 48 h
[26] = 50 mg single oral, fasted, 54 h
[27] = 50 mg single oral, fasted, 60 h
[28] = 50 mg single oral, fasted, 72 h
[29] = 50 mg single oral, fasted, 96 h
[30] = 50 mg single oral, fasted, 120 h
[31] = 100 mg single oral, fasted, 6 h
[32] = 100 mg single oral, fasted, 12 h
[33] = 100 mg single oral, fasted, 24 h
[34] = 100 mg single oral, fasted, 30 h
[35] = 100 mg single oral, fasted, 36 h
[36] = 100 mg single oral, fasted, 48 h
[37] = 100 mg single oral, fasted, 54 h
[38] = 100 mg single oral, fasted, 60 h
[39] = 100 mg single oral, fasted, 72 h
[40] = 100 mg single oral, fasted, 96 h
[41] = 100 mg single oral, fasted, 120 h
[42] = 150 mg single oral, fasted, 6 h
[43] = 150 mg single oral, fasted, 12 h
[44] = 150 mg single oral, fasted, 24 h
[45] = 150 mg single oral, fasted, 30 h
[46] = 150 mg single oral, fasted, 36 h
[47] = 150 mg single oral, fasted, 48 h
[48] = 150 mg single oral, fasted, 54 h
[49] = 150 mg single oral, fasted, 60 h
[50] = 150 mg single oral, fasted, 72 h
[51] = 150 mg single oral, fasted, 96 h
[52] = 150 mg single oral, fasted, 120 h
[53] = single oral dose, 50 mg or higher, fasted

Compound: [2H]c1c([2H])c([2H])c2c(C(=O)c3cc(Br)c(O)c(Br)c3)c(C(C)O)oc2c1[2H] (racemic) [Compound 1, (3,5-dibromo-4-hydroxyphenyl)(2-(1-hydroxyethyl)benzofuran-3-yl-4,5,6,7-d4)methanone]
- Percent change in serum uric acid, mean, time-matched (Day-1) baseline (15 mg single oral, fasted, 6 h): 2.7%
- Serum uric acid, mean (15 mg single oral, fasted, 6 h): 5.4 mg/dL
- Percent change in serum uric acid, mean, time-matched (Day-1) baseline [1]: 8.7%
- Serum uric acid, mean [1]: 5.1 mg/dL
- Serum uric acid, mean (15 mg single oral, fasted, 24 h): 5.1 mg/dL
- Percent change in serum uric acid, mean, time-matched (Day-1) baseline [2]: 0.7%
- Serum uric acid, mean [2]: 5.2 mg/dL
- Percent change in serum uric acid, mean, time-matched (Day-1) baseline [3]: −1.4%
- Serum uric acid, mean [3]: 4.6 mg/dL
- Percent change in serum uric acid, mean, time-matched (Day-1) baseline [4]: −4.4%
- Serum uric acid, mean [4]: 5.2 mg/dL
- Percent change in serum uric acid, mean, time-matched (Day-1) baseline [5]: −1.5%
- Serum uric acid, mean [5]: 5.1 mg/dL
- Percent change in serum uric acid, mean, time-matched (Day-1) baseline [6]: 10.0%
- Serum uric acid, mean [6]: 5.2 mg/dL
- Percent change in serum uric acid, mean, time-matched (Day-1) baseline [7]: 3.6%
- Serum uric acid, mean [7]: 5.6 mg/dL
- Percent change in serum uric acid, mean, time-matched (Day-1) baseline [8]: 7.8%
- Serum uric acid, mean [8]: 5.8 mg/dL
- Percent change in serum uric acid, mean, time-matched (Day-1) baseline [9]: 13.0%
- Serum uric acid, mean [9]: 6.1 mg/dL
- Percent change in serum uric acid, mean, time-matched (Day-1) baseline [10]: −26.9%
- Serum uric acid, mean [10]: 4.0 mg/dL
- Percent change in serum uric acid, mean, time-matched (Day-1) baseline [11]: −37.5%
- Serum uric acid, mean [11]: 3.4 mg/dL
- Percent change in serum uric acid, mean, time-matched (Day-1) baseline [12]: −38.3%
- Serum uric acid, mean [12]: 3.7 mg/dL
- Percent change in serum uric acid, mean, time-matched (Day-1) baseline [13]: −36.9%
- Serum uric acid, mean [13]: 3.4 mg/dL
- Percent change in serum uric acid, mean, time-matched (Day-1) baseline [14]: −34.1%
- Serum uric acid, mean [14]: 3.6 mg/dL
- Percent change in serum uric acid, mean, time-matched (Day-1) baseline [15]: −32.4%
- Serum uric acid, mean [15]: 4.1 mg/dL
- Percent change in serum uric acid, mean, time-matched (Day-1) baseline [16]: −28.1%
- Serum uric acid, mean [16]: 3.9 mg/dL
- Percent change in serum uric acid, mean, time-matched (Day-1) baseline [17]: −21.0%
- Serum uric acid, mean [17]: 4.3 mg/dL
- Percent change in serum uric acid, mean, time-matched (Day-1) baseline [18]: −17.8%
- Serum uric acid, mean [18]: 4.9 mg/dL
- Percent change in serum uric acid, mean, time-matched (Day-1) baseline [19]: −11.2%
- Serum uric acid, mean [19]: 5.3 mg/dL
- Percent change in serum uric acid, mean, time-matched (Day-1) baseline [20]: −12.5%
- Serum uric acid, mean [20]: 5.2 mg/dL
- Percent change in serum uric acid, mean, time-matched (Day-1) baseline (50 mg single oral, fasted, 6 h): −23.8%
- Serum uric acid, mean (50 mg single oral, fasted, 6 h): 4.6 mg/dL
- Percent change in serum uric acid, mean, time-matched (Day-1) baseline [21]: −33.6%
- Serum uric acid, mean [21]: 3.9 mg/dL
- Percent change in serum uric acid, mean, time-matched (Day-1) baseline [22]: −42.4%
- Serum uric acid, mean [22]: 3.9 mg/dL
- Percent change in serum uric acid, mean, time-matched (Day-1) baseline [23]: −33.5%
- Serum uric acid, mean [23]: 4.1 mg/dL
- Percent change in serum uric acid, mean, time-matched (Day-1) baseline [24]: −33.9%
- Serum uric acid, mean [24]: 3.9 mg/dL
- Percent change in serum uric acid, mean, time-matched (Day-1) baseline [25]: −35.8%
- Serum uric acid, mean [25]: 4.3 mg/dL
- Percent change in serum uric acid, mean, time-matched (Day-1) baseline [26]: −32.1%
- Serum uric acid, mean [26]: 4.2 mg/dL
- Percent change in serum uric acid, mean, time-matched (Day-1) baseline [27]: −24.2%
- Serum uric acid, mean [27]: 4.5 mg/dL
- Percent change in serum uric acid, mean, time-matched (Day-1) baseline [28]: −26.1%
- Serum uric acid, mean [28]: 5.0 mg/dL
- Percent change in serum uric acid, mean, time-matched (Day-1) baseline [29]: −9.6%
- Serum uric acid, mean [29]: 6.0 mg/dL
- Percent change in serum uric acid, mean, time-matched (Day-1) baseline [30]: −4.6%
- Serum uric acid, mean [30]: 6.4 mg/dL
- Percent change in serum uric acid, mean, time-matched (Day-1) baseline (50 mg single oral, fed, 6 h): −20.3%
- Serum uric acid, mean (50 mg single oral, fed, 6 h): 4.8 mg/dL
- Percent change in serum uric acid, mean, time-matched (Day-1) baseline (50 mg single oral, fed, 12 h): −37.7%
- Serum uric acid, mean (50 mg single oral, fed, 12 h): 3.9 mg/dL
- Percent change in serum uric acid, mean, time-matched (Day-1) baseline (50 mg single oral, fed, 24 h): −41.9%
- Serum uric acid, mean (50 mg single oral, fed, 24 h): 3.8 mg/dL
- Percent change in serum uric acid, mean, time-matched (Day-1) baseline (50 mg single oral, fed, 30 h): −40.1%
- Serum uric acid, mean (50 mg single oral, fed, 30 h): 3.6 mg/dL
- Percent change in serum uric acid, mean, time-matched (Day-1) baseline (50 mg single oral, fed, 36 h): −37.4%
- Serum uric acid, mean (50 mg single oral, fed, 36 h): 3.9 mg/dL
- Percent change in serum uric acid, mean, time-matched (Day-1) baseline (50 mg single oral, fed, 48 h): −32.6%
- Serum uric acid, mean (50 mg single oral, fed, 48 h): 4.4 mg/dL
- Percent change in serum uric acid, mean, time-matched (Day-1) baseline (50 mg single oral, fed, 54 h): −29.8%
- Serum uric acid, mean (50 mg single oral, fed, 54 h): 4.2 mg/dL
- Percent change in serum uric acid, mean, time-matched (Day-1) baseline (50 mg single oral, fed, 60 h): −31.3%
- Serum uric acid, mean (50 mg single oral, fed, 60 h): 4.3 mg/dL
- Percent change in serum uric acid, mean, time-matched (Day-1) baseline (50 mg single oral, fed, 72 h): −23.3%
- Serum uric acid, mean (50 mg single oral, fed, 72 h): 5.0 mg/dL
- Percent change in serum uric acid, mean, time-matched (Day-1) baseline (50 mg single oral, fed, 96 h): −10.9%
- Serum uric acid, mean (50 mg single oral, fed, 96 h): 5.8 mg/dL
- Percent change in serum uric acid, mean, time-matched (Day-1) baseline (50 mg single oral, fed, 120 h): −5.8%
- Serum uric acid, mean (50 mg single oral, fed, 120 h): 6.1 mg/dL
- sUA reduction with versus without food (50 mg single oral, throughout 120 hours post-dose): no difference observed
- Percent change in serum uric acid, mean, time-matched (Day-1) baseline [31]: −31.6%
- Serum uric acid, mean [31]: 3.5 mg/dL
- Percent change in serum uric acid, mean, time-matched (Day-1) baseline [32]: −48.2%
- Serum uric acid, mean [32]: 2.6 mg/dL
- Percent change in serum uric acid, mean, time-matched (Day-1) baseline [33]: −58.8%
- Serum uric acid, mean [33]: 2.3 mg/dL
- Percent change in serum uric acid, mean, time-matched (Day-1) baseline [34]: −58.2%
- Serum uric acid, mean [34]: 2.2 mg/dL
- Percent change in serum uric acid, mean, time-matched (Day-1) baseline [35]: −52.9%
- Serum uric acid, mean [35]: 2.4 mg/dL
- Percent change in serum uric acid, mean, time-matched (Day-1) baseline [36]: −47.4%
- Serum uric acid, mean [36]: 2.9 mg/dL
- Percent change in serum uric acid, mean, time-matched (Day-1) baseline [37]: −45.7%
- Serum uric acid, mean [37]: 2.8 mg/dL
- Percent change in serum uric acid, mean, time-matched (Day-1) baseline [38]: −37.5%
- Serum uric acid, mean [38]: 3.1 mg/dL
- Percent change in serum uric acid, mean, time-matched (Day-1) baseline [39]: −38.7%
- Serum uric acid, mean [39]: 3.4 mg/dL
- Percent change in serum uric acid, mean, time-matched (Day-1) baseline [40]: −17.3%
- Serum uric acid, mean [40]: 4.6 mg/dL
- Percent change in serum uric acid, mean, time-matched (Day-1) baseline [41]: −3.8%
- Serum uric acid, mean [41]: 5.4 mg/dL
- Percent change in serum uric acid, mean, time-matched (Day-1) baseline [42]: −36.2%
- Serum uric acid, mean [42]: 3.7 mg/dL
- Percent change in serum uric acid, mean, time-matched (Day-1) baseline [43]: −50.4%
- Serum uric acid, mean [43]: 2.6 mg/dL
- Percent change in serum uric acid, mean, time-matched (Day-1) baseline [44]: −59.3%
- Serum uric acid, mean [44]: 2.5 mg/dL
- Percent change in serum uric acid, mean, time-matched (Day-1) baseline [45]: −59.1%
- Serum uric acid, mean [45]: 2.3 mg/dL
- Percent change in serum uric acid, mean, time-matched (Day-1) baseline [46]: −55.6%
- Serum uric acid, mean [46]: 2.4 mg/dL
- Percent change in serum uric acid, mean, time-matched (Day-1) baseline [47]: −53.8%
- Serum uric acid, mean [47]: 2.8 mg/dL
- Percent change in serum uric acid, mean, time-matched (Day-1) baseline [48]: −49.5%
- Serum uric acid, mean [48]: 2.9 mg/dL
- Percent change in serum uric acid, mean, time-matched (Day-1) baseline [49]: −40.8%
- Serum uric acid, mean [49]: 3.1 mg/dL
- Percent change in serum uric acid, mean, time-matched (Day-1) baseline [50]: −37.1%
- Serum uric acid, mean [50]: 3.8 mg/dL
- Percent change in serum uric acid, mean, time-matched (Day-1) baseline [51]: −25.9%
- Serum uric acid, mean [51]: 4.5 mg/dL
- Percent change in serum uric acid, mean, time-matched (Day-1) baseline [52]: −15.4%
- Serum uric acid, mean [52]: 5.2 mg/dL
- onset of sUA lowering effect [53]: 6 hours post-dose
- time of sUA nadir [53]: 24-36 hours post-dose
- time sUA remained lower than baseline levels [53]: up to 72 hours post-dose
- dose at which decrease in sUA appeared to reach a plateau (single oral dose, fasted): ≤ 100 mg

— patent US20230218563A1, “METHODS FOR TREATING OR PREVENTING CHRONIC KIDNEY DISEASE” (Arthrosi Therapeutics, Inc., priority 2020, published 2023)
